The test system of one test is HEK293. The test can be described thus: cells. Format: functional, cell-based. The settings on record: Homo sapiens.
Test [1] has as its target T1, Nuclear receptor subfamily 0 group B member 1 (Homo sapiens, UniProt P51843).
T1 sequence (P51843 whole entry): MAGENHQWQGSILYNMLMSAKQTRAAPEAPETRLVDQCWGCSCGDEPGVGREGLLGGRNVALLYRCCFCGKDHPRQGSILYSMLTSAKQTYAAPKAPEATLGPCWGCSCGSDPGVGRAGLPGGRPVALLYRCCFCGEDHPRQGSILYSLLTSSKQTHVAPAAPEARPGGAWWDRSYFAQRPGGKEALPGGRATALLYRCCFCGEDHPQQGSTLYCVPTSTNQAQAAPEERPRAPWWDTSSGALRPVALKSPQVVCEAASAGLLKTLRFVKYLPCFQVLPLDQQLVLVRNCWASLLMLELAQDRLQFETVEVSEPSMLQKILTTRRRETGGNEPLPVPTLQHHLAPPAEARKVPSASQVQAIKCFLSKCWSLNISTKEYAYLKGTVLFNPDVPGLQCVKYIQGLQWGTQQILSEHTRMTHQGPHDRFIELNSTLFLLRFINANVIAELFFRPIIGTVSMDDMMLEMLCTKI
Put plainly: Luminescence-based cell-based high throughput dose response assay for inhibitors of the orphan nuclear receptor subfamily 0, group B, member 1 (DAX1; NR0B1). [Related pubchem assays (depositor defined):AID504766, AID504790]. Type of test: functional.

The target in test [2] is Induced myeloid leukemia cell differentiation protein Mcl-1 (Homo sapiens, UniProt Q07820). Type of test: functional.
Sequence of Induced myeloid leukemia cell differentiation protein Mcl-1 (Q07820 whole entry): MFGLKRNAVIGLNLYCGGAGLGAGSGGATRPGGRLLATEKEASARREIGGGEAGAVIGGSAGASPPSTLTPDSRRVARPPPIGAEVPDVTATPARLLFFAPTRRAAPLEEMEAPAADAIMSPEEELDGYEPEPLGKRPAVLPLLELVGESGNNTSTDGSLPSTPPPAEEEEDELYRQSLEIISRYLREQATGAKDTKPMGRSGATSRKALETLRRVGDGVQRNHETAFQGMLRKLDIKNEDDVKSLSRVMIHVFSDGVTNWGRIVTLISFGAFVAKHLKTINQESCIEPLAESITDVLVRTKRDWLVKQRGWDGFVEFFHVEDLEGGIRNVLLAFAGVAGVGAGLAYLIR
Test [3] deals with T2, Replicative DNA helicase DnaB (Mycobacterium tuberculosis, UniProt P9WMR3).
T2 sequence (P9WMR3 whole entry): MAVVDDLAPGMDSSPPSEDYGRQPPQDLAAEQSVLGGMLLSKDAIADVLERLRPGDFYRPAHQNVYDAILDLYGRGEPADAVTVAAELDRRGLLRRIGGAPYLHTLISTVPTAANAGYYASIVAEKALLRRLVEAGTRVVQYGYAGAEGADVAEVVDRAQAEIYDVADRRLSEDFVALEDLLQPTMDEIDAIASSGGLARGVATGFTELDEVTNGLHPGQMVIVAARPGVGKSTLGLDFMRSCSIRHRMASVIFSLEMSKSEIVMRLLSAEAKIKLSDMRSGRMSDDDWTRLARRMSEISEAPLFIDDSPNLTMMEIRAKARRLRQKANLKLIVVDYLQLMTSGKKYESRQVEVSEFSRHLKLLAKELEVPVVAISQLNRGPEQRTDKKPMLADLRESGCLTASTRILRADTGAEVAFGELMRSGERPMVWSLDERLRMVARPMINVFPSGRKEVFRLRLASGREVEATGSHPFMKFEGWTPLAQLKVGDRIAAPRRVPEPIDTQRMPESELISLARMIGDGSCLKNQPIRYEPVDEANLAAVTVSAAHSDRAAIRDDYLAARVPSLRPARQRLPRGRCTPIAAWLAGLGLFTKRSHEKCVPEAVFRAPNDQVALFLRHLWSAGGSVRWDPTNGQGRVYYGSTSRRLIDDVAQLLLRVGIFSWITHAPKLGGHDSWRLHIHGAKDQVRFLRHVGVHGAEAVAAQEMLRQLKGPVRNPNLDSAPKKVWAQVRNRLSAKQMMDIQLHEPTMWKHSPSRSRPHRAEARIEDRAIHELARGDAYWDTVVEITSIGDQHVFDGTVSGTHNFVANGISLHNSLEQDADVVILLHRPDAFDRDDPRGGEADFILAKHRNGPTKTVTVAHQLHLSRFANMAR
The test can be described thus: DnaB intein splicing inhibitors, dose response, biochemical, cell-free fluorescence (AID 449749). Type of test: functional.

In test [4] the target is T3, Apoptotic protease-activating factor 1 (Homo sapiens, UniProt O14727).
T3 sequence (O14727 whole entry): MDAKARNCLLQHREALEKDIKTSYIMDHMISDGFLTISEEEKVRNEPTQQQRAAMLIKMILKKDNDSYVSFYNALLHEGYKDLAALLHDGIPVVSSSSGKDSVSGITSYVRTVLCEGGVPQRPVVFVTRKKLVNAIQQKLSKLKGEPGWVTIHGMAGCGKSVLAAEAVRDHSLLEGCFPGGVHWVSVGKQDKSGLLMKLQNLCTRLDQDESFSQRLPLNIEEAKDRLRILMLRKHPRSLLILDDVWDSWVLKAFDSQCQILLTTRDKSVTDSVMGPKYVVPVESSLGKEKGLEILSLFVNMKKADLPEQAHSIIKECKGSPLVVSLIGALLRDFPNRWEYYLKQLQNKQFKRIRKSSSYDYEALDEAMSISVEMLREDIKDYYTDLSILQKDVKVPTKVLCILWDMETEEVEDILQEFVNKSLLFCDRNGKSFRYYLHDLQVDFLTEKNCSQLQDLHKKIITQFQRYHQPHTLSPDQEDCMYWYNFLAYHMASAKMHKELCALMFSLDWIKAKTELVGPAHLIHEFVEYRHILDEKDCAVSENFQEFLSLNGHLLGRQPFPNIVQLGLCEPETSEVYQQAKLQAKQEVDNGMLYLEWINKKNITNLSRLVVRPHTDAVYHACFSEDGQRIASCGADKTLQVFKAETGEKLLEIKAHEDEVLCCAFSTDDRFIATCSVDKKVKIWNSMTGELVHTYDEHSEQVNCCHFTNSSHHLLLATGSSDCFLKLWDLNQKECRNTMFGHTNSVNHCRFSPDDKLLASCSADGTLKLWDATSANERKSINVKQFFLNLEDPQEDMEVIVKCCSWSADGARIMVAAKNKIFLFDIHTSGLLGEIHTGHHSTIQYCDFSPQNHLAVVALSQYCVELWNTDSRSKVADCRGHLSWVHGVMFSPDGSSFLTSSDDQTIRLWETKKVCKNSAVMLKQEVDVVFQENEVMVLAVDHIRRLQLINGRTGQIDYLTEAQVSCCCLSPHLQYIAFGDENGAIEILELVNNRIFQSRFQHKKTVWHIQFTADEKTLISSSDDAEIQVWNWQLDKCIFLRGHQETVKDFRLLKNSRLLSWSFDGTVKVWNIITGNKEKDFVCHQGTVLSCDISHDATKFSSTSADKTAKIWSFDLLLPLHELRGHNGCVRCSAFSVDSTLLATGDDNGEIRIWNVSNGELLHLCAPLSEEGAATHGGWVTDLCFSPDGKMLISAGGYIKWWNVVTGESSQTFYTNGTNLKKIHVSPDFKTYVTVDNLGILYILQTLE
Type of test: functional.

Test [5] addresses T4, Polyadenylate-binding protein 1 (Homo sapiens, UniProt P11940). The test can be described thus: PABP1 MLLE–PAM2 interaction inhibitors, dose response, miRNA deadenylation inhibitor project, biochemical, fluorescence polarization, Cy5-PAM2 peptide, secondary (AID 602260). Type of test: functional. The conditions noted are these: read-out: IC50_Mean. Background: Fluorescence polarisation rises when a labelled molecule tumbles more slowly, as on binding a larger partner.

The next test concerns the target Nonstructural protein 1 (Influenza A virus, UniProt Q194T2). Format: functional, Influenza A virus (A/California/07/2009(H1N1)).
The target of test [6] is Glucose-6-phosphate 1-dehydrogenase (Homo sapiens, UniProt P11413). The test can be described thus: human G6PD enzyme inhibitors, dose response, selectivity assay for P. falciparum G6PD inhibitor project, biochemical, fluorescence (AID 504792). Format: functional.
Sequence of Glucose-6-phosphate 1-dehydrogenase (P11413 whole entry): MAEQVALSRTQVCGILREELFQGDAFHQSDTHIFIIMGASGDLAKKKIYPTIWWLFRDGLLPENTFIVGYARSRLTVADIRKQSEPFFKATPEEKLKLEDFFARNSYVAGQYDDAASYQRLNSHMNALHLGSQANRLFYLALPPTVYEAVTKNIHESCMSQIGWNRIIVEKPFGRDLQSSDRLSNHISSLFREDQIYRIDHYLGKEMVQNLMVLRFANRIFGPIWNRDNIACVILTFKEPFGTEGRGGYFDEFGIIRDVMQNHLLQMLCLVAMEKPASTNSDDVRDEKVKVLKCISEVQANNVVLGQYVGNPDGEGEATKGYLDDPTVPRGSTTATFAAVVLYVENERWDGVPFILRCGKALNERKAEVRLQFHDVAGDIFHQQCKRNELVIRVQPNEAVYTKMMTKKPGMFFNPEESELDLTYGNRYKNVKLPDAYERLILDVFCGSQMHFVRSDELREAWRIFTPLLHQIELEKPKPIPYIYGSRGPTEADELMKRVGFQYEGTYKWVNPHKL
The target in another test is T5, Protein RecA (Mycobacterium tuberculosis, UniProt P9WHJ3).
T5 sequence (P9WHJ3 whole entry): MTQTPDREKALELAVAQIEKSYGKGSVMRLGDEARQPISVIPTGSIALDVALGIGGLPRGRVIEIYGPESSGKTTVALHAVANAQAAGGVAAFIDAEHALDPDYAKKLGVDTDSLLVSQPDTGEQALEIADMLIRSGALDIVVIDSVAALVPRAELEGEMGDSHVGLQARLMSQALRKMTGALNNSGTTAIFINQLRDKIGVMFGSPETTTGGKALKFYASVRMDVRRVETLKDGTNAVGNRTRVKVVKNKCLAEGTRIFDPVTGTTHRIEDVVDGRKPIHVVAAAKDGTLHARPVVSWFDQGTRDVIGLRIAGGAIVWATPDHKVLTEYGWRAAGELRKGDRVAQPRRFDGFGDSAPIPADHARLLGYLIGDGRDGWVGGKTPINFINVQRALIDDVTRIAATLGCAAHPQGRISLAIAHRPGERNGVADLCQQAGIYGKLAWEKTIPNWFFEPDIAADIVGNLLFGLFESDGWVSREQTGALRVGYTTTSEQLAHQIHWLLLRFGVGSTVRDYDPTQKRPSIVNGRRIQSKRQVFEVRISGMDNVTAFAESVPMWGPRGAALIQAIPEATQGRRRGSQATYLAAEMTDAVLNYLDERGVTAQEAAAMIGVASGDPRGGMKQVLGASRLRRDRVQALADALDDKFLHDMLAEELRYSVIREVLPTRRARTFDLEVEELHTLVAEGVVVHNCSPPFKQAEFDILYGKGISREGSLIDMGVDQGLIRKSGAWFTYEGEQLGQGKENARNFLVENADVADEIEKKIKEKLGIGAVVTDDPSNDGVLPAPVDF
Put plainly: Fluorescence Cell-Free Homogeneous Dose Retest to Identify Inhibitors of RecA-Intein Splicing Activity. [Related pubchem assays (depositor defined):AID2097, AID2223, AID489010, AID492950]. Type of test: functional.

For test [7], the target named is T4, Polyadenylate-binding protein 1. Put plainly: PABP1 MLLE–PAM2 binding inhibitor potency, dose response, biochemical, fluorescence polarization, FITC-PAM2 peptide (AID 602259). Format: functional. The settings on record: read-out: IC50_Mean.
A further test relates to CHO. The test can be described thus: cytotoxicity in TLR9-MyD88 CHO cells, dose response, cytotoxicity control for TLR9-MyD88 binding inhibitor project, cell-based, luminescence (AID 588339).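 Further: CHO cells stably coexpressing TLR9 and MyD88 fusions from primary screen; compound exposure lasted 48 hours before viability readout.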 Type of test: functional, hamster. The conditions noted are these: Cricetulus griseus.
Test [8] deals with Voltage-gated inwardly rectifying potassium channel KCNH2 (Homo sapiens, UniProt Q12809). The conditions noted are these: Potency.
Sequence of Voltage-gated inwardly rectifying potassium channel KCNH2 (Q12809 whole entry): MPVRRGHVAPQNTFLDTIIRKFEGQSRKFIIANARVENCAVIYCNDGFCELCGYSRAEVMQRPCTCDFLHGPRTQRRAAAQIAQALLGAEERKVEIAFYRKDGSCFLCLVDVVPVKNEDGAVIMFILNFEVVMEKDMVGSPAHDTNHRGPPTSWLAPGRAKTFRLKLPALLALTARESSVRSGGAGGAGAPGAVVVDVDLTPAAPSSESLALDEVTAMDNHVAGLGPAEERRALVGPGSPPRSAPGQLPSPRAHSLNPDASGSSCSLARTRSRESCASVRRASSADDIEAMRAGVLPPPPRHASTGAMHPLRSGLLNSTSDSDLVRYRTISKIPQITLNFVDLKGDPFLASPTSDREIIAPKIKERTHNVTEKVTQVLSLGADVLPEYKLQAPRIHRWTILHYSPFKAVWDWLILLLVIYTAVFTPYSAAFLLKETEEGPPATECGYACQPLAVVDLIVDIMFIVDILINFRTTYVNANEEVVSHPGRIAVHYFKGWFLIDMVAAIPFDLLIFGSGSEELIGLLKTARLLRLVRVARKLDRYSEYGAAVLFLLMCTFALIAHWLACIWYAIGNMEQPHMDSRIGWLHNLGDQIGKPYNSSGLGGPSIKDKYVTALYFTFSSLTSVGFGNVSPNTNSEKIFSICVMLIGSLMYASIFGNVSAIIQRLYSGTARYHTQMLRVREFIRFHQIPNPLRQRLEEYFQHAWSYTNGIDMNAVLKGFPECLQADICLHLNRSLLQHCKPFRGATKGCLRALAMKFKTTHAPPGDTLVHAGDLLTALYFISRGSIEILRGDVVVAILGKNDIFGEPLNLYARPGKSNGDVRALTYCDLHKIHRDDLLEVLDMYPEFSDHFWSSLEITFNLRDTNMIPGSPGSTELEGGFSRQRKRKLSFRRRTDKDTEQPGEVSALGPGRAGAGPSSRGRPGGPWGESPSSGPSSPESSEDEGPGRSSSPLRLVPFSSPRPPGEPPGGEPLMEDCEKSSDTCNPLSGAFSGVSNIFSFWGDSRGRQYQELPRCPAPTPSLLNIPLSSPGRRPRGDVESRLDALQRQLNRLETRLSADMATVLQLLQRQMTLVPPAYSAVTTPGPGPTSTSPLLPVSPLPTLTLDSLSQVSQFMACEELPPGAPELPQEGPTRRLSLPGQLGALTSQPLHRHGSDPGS
Test [9] has as its target T6, Aryl hydrocarbon receptor (Homo sapiens, UniProt P35869).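 Further: confirmatory quantitative high-throughput screen measuring activation of the AhR signaling pathway.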
T6 sequence (P35869 whole entry): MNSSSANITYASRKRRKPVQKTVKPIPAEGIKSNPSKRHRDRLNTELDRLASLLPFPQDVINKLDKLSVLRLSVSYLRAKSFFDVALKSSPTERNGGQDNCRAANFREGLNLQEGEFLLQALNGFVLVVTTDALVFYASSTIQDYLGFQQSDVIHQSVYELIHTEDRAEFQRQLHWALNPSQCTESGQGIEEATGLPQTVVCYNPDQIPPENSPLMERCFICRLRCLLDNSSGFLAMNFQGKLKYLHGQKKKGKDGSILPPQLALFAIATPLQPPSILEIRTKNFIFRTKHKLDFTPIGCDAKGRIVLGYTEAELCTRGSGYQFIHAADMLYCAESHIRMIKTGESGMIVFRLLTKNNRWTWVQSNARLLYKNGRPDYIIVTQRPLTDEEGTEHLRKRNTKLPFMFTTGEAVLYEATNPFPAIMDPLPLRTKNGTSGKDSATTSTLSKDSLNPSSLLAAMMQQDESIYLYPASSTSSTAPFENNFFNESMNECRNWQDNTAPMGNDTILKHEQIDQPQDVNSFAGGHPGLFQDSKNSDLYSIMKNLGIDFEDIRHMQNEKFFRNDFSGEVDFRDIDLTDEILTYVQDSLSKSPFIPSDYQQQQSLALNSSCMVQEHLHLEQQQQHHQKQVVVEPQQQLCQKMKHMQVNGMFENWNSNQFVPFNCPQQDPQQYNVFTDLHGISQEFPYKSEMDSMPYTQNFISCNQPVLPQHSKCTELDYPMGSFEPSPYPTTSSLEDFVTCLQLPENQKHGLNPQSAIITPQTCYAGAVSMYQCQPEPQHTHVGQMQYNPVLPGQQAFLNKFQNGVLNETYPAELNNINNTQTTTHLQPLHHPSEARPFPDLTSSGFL
The settings on record: Potency.

Active and inactive are the calls of the source.

T4 sequence (P11940 whole entry): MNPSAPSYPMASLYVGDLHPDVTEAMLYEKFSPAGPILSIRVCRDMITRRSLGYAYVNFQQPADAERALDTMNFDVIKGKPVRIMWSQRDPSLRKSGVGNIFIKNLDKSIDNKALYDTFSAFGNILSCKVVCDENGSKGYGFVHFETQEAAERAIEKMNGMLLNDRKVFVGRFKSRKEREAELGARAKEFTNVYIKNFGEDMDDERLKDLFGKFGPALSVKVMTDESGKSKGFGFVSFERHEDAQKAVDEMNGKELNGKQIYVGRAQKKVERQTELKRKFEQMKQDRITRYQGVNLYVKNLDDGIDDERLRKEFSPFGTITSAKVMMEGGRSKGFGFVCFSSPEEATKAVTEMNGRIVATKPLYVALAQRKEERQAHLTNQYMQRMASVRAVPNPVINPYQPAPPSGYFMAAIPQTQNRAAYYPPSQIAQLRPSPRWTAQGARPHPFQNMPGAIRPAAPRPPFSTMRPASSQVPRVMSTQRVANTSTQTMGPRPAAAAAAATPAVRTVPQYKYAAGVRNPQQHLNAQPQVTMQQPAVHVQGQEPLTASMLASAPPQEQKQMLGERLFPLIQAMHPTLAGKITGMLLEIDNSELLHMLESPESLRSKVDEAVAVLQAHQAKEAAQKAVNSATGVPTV
Sequence of Nonstructural protein 1 (Q194T2 whole entry): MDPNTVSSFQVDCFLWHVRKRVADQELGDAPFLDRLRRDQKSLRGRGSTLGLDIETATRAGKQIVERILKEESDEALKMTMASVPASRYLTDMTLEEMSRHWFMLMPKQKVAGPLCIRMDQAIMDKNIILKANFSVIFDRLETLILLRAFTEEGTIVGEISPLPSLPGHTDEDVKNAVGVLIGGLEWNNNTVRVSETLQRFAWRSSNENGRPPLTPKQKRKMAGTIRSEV

`CCOc1ccc(N(CC(=O)Nc2ccc(C)c(C)c2)S(C)(=O)=O)cc1`: the IC50 (with HEK293; in [1]) was > 67.5 µM (inactive) in each case.
On to `Cc1cc(Cl)c2oc(C(=O)N(CCO)Cc3ccccc3)c(C)c2c1`, for which the IC50 (in the test with HEK293; in test [1]) was > 67.5 µM (inactive) in each case.
In general, AC50 refers to the concentration giving half of the maximal activity seen. As a reminder, the EC50 is the concentration at which the effect is half-maximal. Take `Cc1ccc(NC2=C(NC(=O)c3ccccc3)C(=O)c3ccccc3C2=O)cc1Cl`: the IC50 in test [2] was 3.38 µM (active); in [4], 17 µM (active); in test [5] it was > 66 µM (inactive); at Nonstructural protein 1 it was 17.5 µM (active); in [6], > 80 µM (inactive); in test [7] it was > 66 µM (inactive). Moreover, the AC50 in test [3] was 3 µM (active). Also, the 50% effective concentration (EC50) on Protein RecA is 2.52 µM (active).
Consider `NNC(=O)c1oc2nc(-c3ccc(Cl)cc3)cc(-c3ccccc3)c2c1N`, for which the IC50 in the test with CHO was > 49.7 µM (inactive).
`CCOP(=S)(OCC)SCSC(C)(C)C` [TERBUFOS]: the AC50 in [8] is 39.8 µM (inconclusive).
For the molecule `Nc1ccc(/N=N\c2ccccc2)c(N)c1`, the AC50 in [8] is 50.1 µM (inconclusive); in test [9] it was 14.1 µM (inconclusive).
